Test results from PubChem BioAssay (NCI).
“And” between values parts separate entries of the source, which are not always exact repeats. Identical values can stand only once.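 Test compounds were applied to cells in 96-well plates for 48 hours at 5 doses. GI50 marks 50% less growth. TGI: total growth inhibition.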

What was measured:
Assay in all cases: DTP human tumour cell line panel, 48 h
TK-10 renal = test system: TK-10 renal
RXF 393 renal = test system: RXF 393 renal
IGROV1 ovarian = test system: IGROV1 ovarian
RPMI-8226 leukemia = test system: RPMI-8226 leukemia
UACC-257 melanoma = test system: UACC-257 melanoma
NCI-H226 lung = test system: NCI-H226 lung
T-47D breast = test system: T-47D breast
DU-145 prostate = test system: DU-145 prostate
HS 578T breast = test system: HS 578T breast
NCI/ADR-RES ovarian = test system: NCI/ADR-RES ovarian

Row | Structure (SMILES) | TGI (TK-10 renal) [µM] | TGI (RXF 393 renal) | TGI (IGROV1 ovarian) [µM] | TGI (RPMI-8226 leukemia) | TGI (UACC-257 melanoma) | TGI (NCI-H226 lung) [µM] | GI50 (T-47D breast) [µM] | TGI (T-47D breast) | GI50 (IGROV1 ovarian) [µM] | GI50 (DU-145 prostate) [µM] | GI50 (HS 578T breast) [µM] | GI50 (UACC-257 melanoma) | GI50 (TK-10 renal) [µM] | GI50 (NCI/ADR-RES ovarian) [µM] | TGI (NCI/ADR-RES ovarian) [µM] | TGI (DU-145 prostate) [µM] | GI50 (RPMI-8226 leukemia) [µM] | TGI (HS 578T breast) [µM] | GI50 (NCI-H226 lung) [µM] | GI50 (RXF 393 renal) [µM]
1 | CC1=C(C(=O)Nc2ccccc2C)C(c2ccc(Cl)c(Cl)c2)C(C(=O)Nc2ccccc2C)=C(C)N1 | > 100 | 41.6 µM | 93.1 | 53.7 µM | 50.7 µM | 43.8 |  |  |  |  |  |  |  |  |  |  |  |  |  | 
2 | COc1cc(/C=C(\C#N)C(=O)c2ccccc2)ccc1OCc1ccccc1 | > 100 |  | > 100 | > 100 µM | > 100 µM | > 100 |  |  |  |  |  |  |  |  |  |  |  |  |  | 
3 | CC(C)CS(=O)(=O)/C(=C(\c1ccc(Br)cc1)S(=O)(=O)CC(C)C)c1ccc(Br)cc1 | > 100 | > 100 µM | 40.9 | > 100 µM | > 100 µM | > 100 |  |  |  |  |  |  |  |  |  |  |  |  |  | 
4 | NC(=O)C(=Cc1ccc(C(O)P(=O)(O)O)cc1)C(N)=O (stereo unspecified) | > 100 | > 100 µM | > 100 | > 100 µM | > 100 µM |  |  |  |  |  |  |  |  |  |  |  |  |  |  | 
5 | Cc1cc(Cl)ccc1NC(=O)CCCC(=O)C1CCCC1=O (stereo unspecified) | > 100 |  | > 100 | > 100 µM | > 100 µM | > 100 |  |  |  |  |  |  |  |  |  |  |  |  |  | 
6 | CCOC(=O)NC(=O)c1cn(CC(=O)NCC(=O)NCC(=O)NCCCN2CCN(CCCNC(=O)CNC(=O)CNC(=O)Cn3cc(C(=O)NC(=O)OCC)c(=O)[nH]c3=O)CC2)c(=O)[nH]c1=O | > 100 |  | > 100 |  | > 100 µM |  |  |  |  |  |  |  |  |  |  |  |  |  |  | 
7 | CCCCCCCCC[C@@H]1CC(=O)OCC2OC(O[C@H](CCCCCCCCC)CC(=O)OCC3OC(O[C@H](CCCCCCCCC)CC(=O)OCC4OC(O1)C(O)C(O)C4O)C(O)C(O)C3O)C(O)C(O)C2O (stereo partly specified) | 23.1 | 30.9 µM | 28.2 | 32.7 µM | 24.2 µM | 24.6 |  |  |  |  |  |  |  |  |  |  |  |  |  | 
8 | Cc1[nH]c2ccccc2c1C1Cc2ccccc2N1C(=O)/C=C\C(=O)O (stereo unspecified) | > 100 | 71.3 µM | > 100 |  | 37.8 µM | > 100 |  |  |  |  |  |  |  |  |  |  |  |  |  | 
9 | COc1ccc([N+]2=NC(c3ccc([N+](=O)[O-])cc3)=NN(c3ccccc3)C2)cc1 | > 100 | > 100 µM | > 100 | 80 µM and > 100 µM | > 100 µM | > 100 |  |  |  |  |  |  |  |  |  |  |  |  |  | 
10 | Cc1c[nH]c2c(O)cc3c(c12)[C@H](CCl)CN3C(=O)c1cc2cc(NC(=O)Nc3ccc4[nH]c(C(=O)N5C[C@@H](CCl)c6c5cc(O)c5[nH]cc(C)c65)cc4c3)ccc2[nH]1 |  | 70.8 nM and > 100 µM and 0.000888 µg/mL | 44 |  | 42.4 µM and 0.00318 µg/mL | 15.9 | 0.00671 | 0.0911 µM and 0.0461 µM | 0.0255 | 0.000923 | 0.0252 | 1.27 ng/mL |  |  |  |  |  |  |  | 
11 | COC(=O)c1cc2c(cc1Cl)SC(N(N(C)C)S(=O)(=O)c1ccc(Br)s1)=NS2(=O)=O | 82.1 |  | 94.3 | 74.1 µM |  | > 100 | 12.8 | 43.1 µM | 29 | 26.1 | 26.2 |  | 29.7 | 23.7 | 59.9 | 86 | 25.4 | 63.5 | 52.1 | 
12 | Nc1c(C(=O)c2ccc(Cl)cc2)sc(Nc2ccccc2)c1-c1nc2ccccc2s1 | > 21.4 | 33.1 µM | > 100 | > 100 µM | > 100 µM | > 100 | 1.46 | > 100 µM | 1.42 |  | 2.56 | > 100 µM | 2.13 | 3.34 | > 100 |  | 6.05 | 26.9 | 1.58 | 10.5
